# In US20260069571A1, “DDR1 AND DDR2 INHIBITORS FOR THE TREATEMENT OF CANCER AND FIBROTIC DISEASES” (REDX PHARMA PLC, priority 2021, published 2026):
# What was measured:
# Recombinant human DDR1 = Recombinant human DDR1 (Homo sapiens (Human), UniProt Q08345); assay: LanthaScreen Eu Kinase Binding Assay, DDR1; details: DDR1 2.5 nM (aa440-876, GST tag), Kinase Tracer 178 5 nM; for IC50: read-out: DDR1 pIC50 (converted)
# Procedure: (§1) DDR1 and DDR2 Biochemical Assay Method
# (§2) The capacity of compounds to bind to DDR1 and DDR2 was quantified using a LanthaScreen Eu Kinase Binding Assay. Recombinant human DDR1 (2.5 nM; aa440-876 containing a GST tag) and DDR2 (1.75 nM; aa427-855 containing a GST tag) were diluted in assay buffer (50 mM HEPES pH7.3, 10 mM MgCl2, 1 mM EGTA and 0.01% Tween) with various concentrations of compound in a 384-well plate and a volume of 5 uL. After a 30-minute incubation at room temperature, 2.5 uL of Eu-anti GST antibody (diluted to 1 nM in assay buffer) plus Kinase Tracer 178 (diluted in assay buffer to 5 nM for DDR1 and 10 nM for DDR2) were added to the plate. Following 60-minute incubation at room temperature, time-resolved fluorescence was measured on a BMG Labtech PHERAstar plate reader. DMSO (1%) and reference compound (1 μM) were used to generate the Max and Min assay signals, respectively. Data was analysed using a four-parameter logistic model to calculate IC50 values, with at least two independent replicates were performed for each compound.
# Recombinant human DDR2 = Recombinant human DDR2 (Homo sapiens (Human), UniProt Q16832); assay: LanthaScreen Eu Kinase Binding Assay, DDR2; details: DDR2 1.75 nM (aa427-855, GST tag), Kinase Tracer 178 10 nM; for IC50: read-out: DDR2 pIC50 (converted)
# Recombinant human DDR2, sequence (Q16832 427-855): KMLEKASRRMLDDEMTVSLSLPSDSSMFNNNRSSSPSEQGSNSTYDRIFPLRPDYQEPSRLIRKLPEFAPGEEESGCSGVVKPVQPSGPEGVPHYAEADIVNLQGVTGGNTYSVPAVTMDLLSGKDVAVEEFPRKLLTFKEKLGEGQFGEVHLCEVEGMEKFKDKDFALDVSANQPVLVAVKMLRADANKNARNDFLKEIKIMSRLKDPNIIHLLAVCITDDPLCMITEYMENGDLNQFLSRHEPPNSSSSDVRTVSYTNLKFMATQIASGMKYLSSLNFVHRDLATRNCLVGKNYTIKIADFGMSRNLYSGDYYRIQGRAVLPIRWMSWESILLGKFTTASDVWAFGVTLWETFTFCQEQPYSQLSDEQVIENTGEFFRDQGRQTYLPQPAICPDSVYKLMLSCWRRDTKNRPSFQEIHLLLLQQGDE
# Procedure: as §1, §2
# Recombinant human DDR1, sequence (Q08345 other isoform, or with tags, fused parts or gaps): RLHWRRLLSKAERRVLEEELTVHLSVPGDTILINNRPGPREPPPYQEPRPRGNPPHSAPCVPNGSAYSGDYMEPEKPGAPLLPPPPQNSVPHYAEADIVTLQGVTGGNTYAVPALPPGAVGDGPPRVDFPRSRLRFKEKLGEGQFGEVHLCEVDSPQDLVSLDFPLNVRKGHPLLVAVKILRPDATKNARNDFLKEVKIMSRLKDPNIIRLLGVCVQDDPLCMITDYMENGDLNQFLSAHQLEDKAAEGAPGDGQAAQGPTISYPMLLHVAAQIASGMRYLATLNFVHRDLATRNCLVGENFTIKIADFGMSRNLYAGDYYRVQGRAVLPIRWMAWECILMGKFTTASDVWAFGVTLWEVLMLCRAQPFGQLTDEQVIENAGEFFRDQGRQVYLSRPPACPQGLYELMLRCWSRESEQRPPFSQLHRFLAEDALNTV
IC50 (Recombinant human DDR1),IC50 (Recombinant human DDR2),DDR1 pIC50 (Recombinant human DDR1),DDR2 pIC50 (Recombinant human DDR2),SMILES
< 10 nM,10 to 100 nM,–,–,"Cn1ncc2cc(Nc3cccc4c3C(=O)N(CC(=O)NCC(F)(F)F)C4)ccc21 [Example 1, 2-[7-[(1-Methylindazol-5-yl)amino]-1-oxo-isoindolin-2-yl]-N-(2,2,2-trifluoroethyl) acetamide]"
–,–,A (pIC50>8),A (pIC50>8),"C[C@H](NC(=O)CN1Cc2cccc(Nc3ccc4c(cnn4C)c3)c2C1=O)C(F)(F)F [Example 2, 2-[7-[(1-Methylindazol-5-yl)amino]-1-oxo-isoindolin-2-yl]-N-[(1S)-2,2,2-trifluoro-1-methyl-ethyl]acetamide]"
< 10 nM,< 10 nM,–,–,"Cn1ncc2cc(Nc3cccc4c3C(=O)N(CC(=O)N3CCC[C@H]3C(F)(F)F)C4)ccc21 [Example 3, 7-[(1-Methylindazol-5-yl)amino]-2-[2-oxo-2-[(2S)-2-(trifluoromethyl)pyrrolidin-1-yl]ethyl]isoindolin-1-one]"
–,–,A (pIC50>8),A (pIC50>8),"Cn1ncc2cc(Nc3cccc4c3C(=O)N(CC(=O)Nc3cnoc3)C4)ccc21 [Example 4, N-isoxazol-4-yl-2-[7-[(1-methylindazol-5-yl)amino]-1-oxo-isoindolin-2-yl]acetamide]"
–,10 to 100 nM,A (pIC50>8),–,"Cn1ncc2cc(Nc3cccc4c3C(=O)N(CC(=O)Nc3cccc(C(F)(F)F)c3)C4)ccc21 [Example 5, 2-{7-[(1-methyl-1H-indazol-5-yl)amino]-1-oxo-2,3-dihydro-1H-isoindol-2-yl}-N-[3-(trifluoromethyl)phenyl]acetamide]"
100 to 1000 nM,–,–,D (pIC50≤6),"Cn1ncc2cc(Nc3cccc4c3C(=O)N(CC(=O)NCC(F)(F)F)C4(C)C)ccc21 [Example 7, 2-[1,1-dimethyl-4-[(1-methylindazol-5-yl)amino]-3-oxo-isoindolin-2-yl]-N-(2,2,2-trifluoroethyl)acetamide]"
10 to 100 nM,10 to 100 nM,–,–,"CN(c1ccc2c(cnn2C)c1)c1cccc2c1C(=O)N(CC(=O)NCC(F)(F)F)C2 [Example 8, 2-[7-[methyl-(1-methylindazol-5-yl)amino]-1-oxo-isoindolin-2-yl]-N-(2,2,2-trifluoroethyl)acetamide]"
10 to 100 nM,100 to 1000 nM,–,–,"Cn1ncc2cc(Nc3cccc4c3C(=O)N(CC(=O)NCC(F)(F)F)C4)cnc21 [Example 9, 2-[7-[(1-methylpyrazolo[3,4-b]pyridin-5-yl)amino]-1-oxo-isoindolin-2-yl]-N-(2,2,2-trifluoroethyl)acetamide]"
–,10 to 100 nM,A (pIC50>8),–,"Cn1ncc2cc(Nc3cccc4c3C(=O)N(CC(=O)Nc3cccc(C(C)(C)O)c3)C4)ccc21 [Example 10, N-[3-(1-hydroxy-1-methyl-ethyl)phenyl]-2-[7-[(1-methylindazol-5-yl)amino]-1-oxo-isoindolin-2-yl]acetamide]"
–,–,A (pIC50>8),A (pIC50>8),"Cc1cc(Nc2cccc3c2C(=O)N(CC(=O)NCC(F)(F)F)C3)cc2cn[nH]c12 [Example 11, 2-[7-[(7-methyl-1H-indazol-5-yl)amino]-1-oxo-isoindolin-2-yl]-N-(2,2,2-trifluoroethyl)acetamide]"
–,10 to 100 nM,–,–,Cn1ncc2cc(Nc3cccc4c3C(=O)N(CC(=O)N3CCCC(C(F)(F)F)C3)C4)ccc21 (centres unmarked) [Example 12]
–,10 to 100 nM,A (pIC50>8),–,"CN(C)Cc1ccc(NC(=O)CN2Cc3cccc(Nc4ccc5c(cnn5C)c4)c3C2=O)cc1C(F)(F)F [Example 13, N-[4-[(dimethylamino)methyl]-3-(trifluoromethyl)phenyl]-2-[7-[(1-methylindazol-5-yl)amino]-1-oxo-isoindolin-2-yl]acetamide]"
< 10 nM,< 10 nM,–,–,"Cn1ncc2cc(Nc3cccc4c3C(=O)N(CC(=O)N3CCCC[C@H]3C(F)(F)F)C4)ccc21 [Example 14, 7-[(1-methylindazol-5-yl)amino]-2-[2-oxo-2-[(2S)-(trifluoromethyl)-1-piperidyl]ethyl]isoindolin-1-one]"
10 to 100 nM,10 to 100 nM,–,–,"CC1c2cccc(Nc3ccc4c(cnn4C)c3)c2C(=O)N1CC(=O)NCC(F)(F)F (centres unmarked) [Example 15, 2-[1-methyl-4-[(1-methylindazol-5-yl)amino]-3-oxo-isoindolin-2-yl]-N-(2,2,2-trifluoroethyl)acetamide]"
< 10 nM,< 10 nM,–,–,"Cn1ncc2cc(Nc3cccc4c3C(=O)N(CC(=O)N3CCC[C@H]3C(F)F)C4)ccc21 [Example 16, 2-[2-[(2S)-(difluoromethyl)pyrrolidin-1-yl]-2-oxo-ethyl]-7-[(1-methylindazol-5-yl)amino]isoindolin-1-one]"
10 to 100 nM,100 to 1000 nM,–,–,"Cn1ncc2cc(Nc3cccc4c3C(=O)N(CC(=O)N3CC(C(F)(F)F)C3)C4)ccc21 [Example 18, 7-[(1-methylindazol-5-yl)amino]-2-[2-oxo-2-[3-(trifluoromethyl)73zetidine-1-yl]ethyl]isoindolin-1-one]"
100 to 1000 nM,100 to 1000 nM,–,–,"Cn1ncc2cc(Nc3cccc4c3C(=O)N(CC(=O)N3CC(F)(F)C3)C4)ccc21 [Example 19, 2-[2-(3,3-difluoroazetidin-1-yl)-2-oxo-ethyl]-7-[(1-methylindazol-5-yl)amino]isoindolin-1-one]"
–,10 to 100 nM,A (pIC50>8),–,"CN(C)Cc1cc(NC(=O)CN2Cc3cccc(Nc4ccc5c(cnn5C)c4)c3C2=O)cc(C(F)(F)F)c1 [Example 20, N-[3-[(dimethylamino)methyl]-5-(trifluoromethyl)phenyl]-2-[7-[(1-methylindazol-5-yl)amino]-1-oxo-isoindolin-2-yl]acetamide]"
–,10 to 100 nM,A (pIC50>8),–,"O=C(CN1Cc2cccc(Nc3ccc4[nH]ncc4c3)c2C1=O)NCC(F)(F)F [Example 21, 2-[7-(1H-indazol-5-ylamino)-1-oxo-isoindolin-2-yl]-N-(2,2,2-trifluoroethyl)acetamide]"
10 to 100 nM,–,–,D (pIC50≤6),"O=C(CN1Cc2cccc(Nc3cnc4[nH]ncc4c3)c2C1=O)NCC(F)(F)F [Example 22, 2-[1-oxo-7-(1H-pyrazolo[3,4-b]pyridin-5-ylamino)isoindolin-2-yl]-N-(2,2,2-trifluoroethyl)acetamide]"
10 to 100 nM,10 to 100 nM,–,–,"Cn1ncc2cc(Nc3cccc4c3C(=O)N(CC(=O)Nc3cccc(C(C)(C)N)c3)C4)ccc21 [Example 23, N-[3-(1-amino-1-methyl-ethyl)phenyl]-2-[7-[(1-methylindazol-5-yl)amino]-1-oxo-isoindolin-2-yl]acetamide]"
–,10 to 100 nM,A (pIC50>8),–,"Cn1ncc2cc(Nc3cccc4c3C(=O)N(CC(=O)NC3CC3(F)F)C4)ccc21 (centres unmarked) [Example 24, N-(2,2-difluorocyclopropyl)-2-[7-[(1-methylindazol-5-yl)amino]-1-oxo-isoindolin-2-yl]acetamide]"
10 to 100 nM,10 to 100 nM,–,–,"Cn1ncc2cc(Nc3cccc4c3C(=O)N(CC(=O)N3CCOC(C(F)(F)F)C3)C4)ccc21 (centres unmarked) [Example 26, 7-[(1-methylindazol-5-yl)amino]-2-[2-oxo-2-[2-(trifluoromethyl)morpholin-4-yl]ethyl]isoindolin-1-one]"
–,–,A (pIC50>8),A (pIC50>8),"Cn1ncc2cc(Nc3cccc4c3C(=O)N(CC(=O)NCC(F)(F)F)C4)cc(Cl)c21 [Example 27, 2-[7-[(7-chloro-1-methyl-indazol-5-yl)amino]-1-oxo-isoindolin-2-yl]-N-(2,2,2-trifluoroethyl)acetamide]"
–,–,A (pIC50>8),A (pIC50>8),"Cc1n[nH]c2cc(Nc3cccc4c3C(=O)N(CC(=O)N[C@@H](C)C(F)(F)F)C4)ccc12 [Example 28, 2-[7-[(3-methyl-1H-indazol-6-yl)amino]-1-oxo-isoindolin-2-yl]-N-[(1S)-2,2,2-trifluoro-1-methyl-ethyl]acetamide]"
< 10 nM,< 10 nM,–,–,"Cc1n[nH]c2cc(Nc3cccc4c3C(=O)N(CC(=O)N3CCC[C@H]3C(F)(F)F)C4)ccc12 [Example 29, 7-[(3-methyl-1H-indazol-6-yl)amino]-2-[2-oxo-2-[(2S)-(trifluoromethyl)77yrrolidine-1-yl]ethyl]isoindolin-1-one]"
–,10 to 100 nM,A (pIC50>8),–,"Cc1n[nH]c2cc(Nc3cccc4c3C(=O)N(CC(=O)NCC(F)(F)F)C4)cnc12 [Example 30, 2-[7-[(3-methyl-1H-pyrazolo[4,3-b]pyridin-6-yl)amino]-1-oxo-isoindolin-2-yl]-N-(2,2,2-trifluoroethyl)acetamide]"
–,10 to 100 nM,A (pIC50>8),–,"Cn1ncc2cc(Nc3cccc4c3C(=O)N(CC(=O)N3CCOCC3C(F)(F)F)C4)ccc21 (centres unmarked) [Example 31, 7-[(1-methylindazol-5-yl)amino]-2-[2-oxo-2-[3-(trifluoromethyl)morpholin-4-yl]ethyl]isoindolin-1-one]"
10 to 100 nM,–,–,–,"Cc1n[nH]c2cc(Nc3cccc4c3C(=O)N(CC(=O)NCC(F)(F)F)C4)cc(Cl)c12 [Example 91, 2-[7-[(4-chloro-3-methyl-1H-indazol-6-yl)amino]-1-oxo-isoindolin-2-yl]-N-(2,2,2-trifluoroethyl)acetamide]"
